From patent US20140296143A1, “Angiotensin-(1-7) As A Chemoprevention Agent” (Wake Forest Innovations, priority 2008, published 2014)

Assays:
[1] = system: lung tumors in Ki-ras^G12C mice; test: Ki-ras^G12C bi-transgenic mouse model of lung tumorigenesis, DOX-induced; format: in vivo
Procedure: Tumors were fixed with 4% paraformaldehyde for 24 h and incubated in 70% ethanol for 48 h prior to embedding in paraffin. The embedded tumors were cut into five micron thick sections and stained with hematoxylin and eosin to determine morphology. Cell proliferation in the tumors was detected by immunostaining with an antibody to Ki67 (1:25; Abcam, Cambridge, Mass.) using the labeled streptavidin biotin method, as described previously (Floyd et al., Carcinogenesis, 2005, 26:2196-2206). Stained sections were visualized and photographed with a video image analysis system (Scion, Inc., Frederick, Md.) and public domain software (NIH Image v1.60). A computer-assisted counting technique with a grid filter to select cells was used to quantify the immunohistochemical staining of Ki67 (Stute et al., Fertil. Steril., 2004, 82:1160-1170). The positive cells were expressed as a percentage of the total cell number examined (100 cells sampled from each tissue site within each lung tumor section).
A novel model for the induction of lung tumors in mice, a bi-transgenic mouse that expresses the mutant human Ki-ras^G12C allele in a tet-inducible and lung-specific manner was generously supplied by Dr. Mark Miller of the Department of Cancer Biology, Wake Forest University School of Medicine, for use in these experiments.
For these experiments, sixteen (16) bi-transgenic mice were produced by crossing mono-transgenic Ki-ras^G12C mice with Clara cell secretory protein-reverse tet trans-activator (CCSP-rtTA) transgenic mice. The presence of both transgenes was verified by genotyping.

[2] = system: ZR-75-1 breast cancer cell line tumors; test: ZR-75-1 breast cancer xenograft in athymic mice, intravenous infusion; format: in vivo, mouse; details: 24 μg/kg/hr infusion, 28 days; saline tumors doubled
Procedure: Male or female athymic mice (15-20 g, 2-4 weeks of age, Charles River Laboratory, Wilmington, Mass.) were housed in cages with HEPA-filtered air (12-hour light/dark cycle) and ad libitum access to food and autoclaved water. All procedures complied with the policies of the Wake Forest University Animal Care and Use Committee. Mice were inoculated subcutaneously in the lower left flank with approximately 1.9×10^6 A549 lung cancer cells or ZR-75-1 breast cancer cells suspended in 200 μL of cold Matrigel (BD Biosciences, Bedford, Mass.). […] The mice were anesthetized by inhalation with 1.5% isoflurane. […] The minipumps also contained heparin (25 U/mL) to maintain patency of the catheter. On day 28 of the infusion, the animals were anesthetized with halothane and sacrificed by decapitation. Alternatively, the mice received daily subcutaneous injections of Ang-(1-7) in saline or saline alone.
Tumor volumes were measured by caliper two times per week and calculated using the formula for a semiellipsoid. After 40 days, the mice had tumors approximately 175 mm^3 in size and were randomized for treatment.

[3] = system: A549 human lung cancer cells; test: Hoechst 33342 staining for morphological features of apoptosis; format: cell-based; details: 100 nM, 4 h
From the text: In one experiment, A549 human lung cancer cells were stained with Hoechst 33342 to visualize the morphological changes associated with apoptosis.

[4] = system: caspase-9; test: Caspase-9 activity in A549 cell lysates; format: cell-based, human; details: A549 cells, 100 nM
[5] = system: ERK1; details: SK-LU-1, 10 nM pretreatment; Gallagher et al., 2004; cited from earlier work
[6] = molecular target: AT1 angiotensin receptor; details: cited from earlier work
[7] = molecular target: T1, AT2 angiotensin receptor (Homo sapiens, UniProt P50052); details: cited from earlier work
T1 sequence (P50052 1-363): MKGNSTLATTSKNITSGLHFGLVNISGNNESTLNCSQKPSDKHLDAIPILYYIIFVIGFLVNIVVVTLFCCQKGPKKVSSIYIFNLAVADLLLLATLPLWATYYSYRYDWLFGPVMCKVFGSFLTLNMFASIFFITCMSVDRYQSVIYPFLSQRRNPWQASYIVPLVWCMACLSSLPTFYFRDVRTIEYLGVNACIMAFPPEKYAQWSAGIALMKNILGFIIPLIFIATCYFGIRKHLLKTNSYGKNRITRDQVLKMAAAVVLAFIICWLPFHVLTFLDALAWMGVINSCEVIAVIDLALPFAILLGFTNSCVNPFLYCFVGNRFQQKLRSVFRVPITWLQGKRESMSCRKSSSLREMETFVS

[8] = adjuvant therapy for cytopenia during chemotherapy; Rodgers et al., 2005; cited from earlier work

CC[C@H](C)[C@H](NC(=O)[C@H](Cc1ccc(O)cc1)NC(=O)[C@@H](NC(=O)[C@H](CCCNC(=N)N)NC(=O)[C@@H](N)CC(=O)O)C(C)C)C(=O)N[C@@H](Cc1c[nH]cn1)C(=O)N1CCC[C@H]1C(=O)O [Ang-(1-7), Asp-Arg-Val-Tyr-Ile-His-Pro]
Ki67 immunoreactivity in hyperplastic lesion ([1]; 24 μg/kg/h infusion, 84 days, saline: abundant, robust staining): little immunoreactivity
adverse reactions or gross pathological abnormalities ([1]; 24 μg/kg/h intravenous infusion, 84 days): No adverse reactions or gross pathological abnormalities
lung tumor multiplicity ([1]; 24 μg/kg/h intravenous infusion, 84 days, n=8, saline 12.75±1.04): 6.4±0.87 tumors/mice
CD34 positive cells in pulmonary lesions ([1]; Ang-(1-7) infusion, n=7, saline 63.5±6.1 (n=8), percentage of total cell number per FIG. 16 legend): 37.7±5.2
proportion of COX-2 positive cells in hyperplasias and adenomas ([1]; Ang-(1-7) infusion, n=7, saline 68.8±10.2% (n=8)): 29.3±8.2%
reduction in the development of new tumors ([1]; Ki-ras/CCSP-rtTA bi-transgenic mice, FIG. 2): about 50%
reduction in the proportion of COX-2 positive cells ([1]; versus saline): ~50%
reduction in CD34 positive cells ([1]; versus saline-treated animals): ~40%
reduction in tumor volume compared to tumor size prior to treatment [2]: ~40%
morphological changes (Hoechst 33342) [3]: typical morphological changes associated with stimulation of apoptosis
caspase-9 activity [4]: no effect
reduction of serum-stimulated phosphorylation of ERK1 [5]: 61%
IC50 at the AT1 angiotensin receptor ([6]; Tallant et al., 1999): micromolar range
competition at the AT1 receptor ([6]; literature): poor competitor
IC50 at the AT2 angiotensin receptor ([7]; Tallant et al., 1999): micromolar range
competition at the AT2 receptor ([7]; literature): poor competitor
adverse side effects in patients [8]: no adverse side effects
